Test results: patent US10344330B2, “Glatiramer acetate response biomarker mRNA potency assay” (Mylan Inc., priority 2013, dated 2019)

What was measured:
IL-13 mRNA in LN cells = experiment: IL-13 mRNA by real-time PCR in LN cells of GA-immunized CD-1, BALB/cByJ, SJL/J mice (Example III); assay type: cell-based, mouse; settings: 6 hours
Method: On Day 0, mice were immunized with 250 μg GA (GMA, Mylan Pharmaceuticals, Inc.) and CFA. The GA solution (20 mg/mL) was diluted with Dulbecco's Phosphate-Buffered Saline to 5 mg/mL. The dosing formulation consisted of equal volumes of the diluted GA solution (5 mg/mL) and CFA solution, mixed until well-emulsified. Animals were weighed and allocated to groups. Animals were dosed by injection into four footpads. The injection volume per animal was 0.1 mL (about 10 μL into each front footpad, and 40 μL into each hind footpad).
Immunized animals were euthanized by cervical dislocation on Day 10 post-immunization. Lymph node cells were isolated from animals and treated with Myelin Basic Protein (MBP, a negative control), Concanavalin A (ConA, a positive control) or GA as shown in Table 16. Lymph nodes in the axillary and popliteal regions were removed aseptically in a purifier clean bench. […] The LN were then washed 3 times with −5 mL of RPMI medium, and isolated by pressing the LN with a syringe plunger. […] The cell suspension was centrifuged at about 200×g for 10 minutes at about 4° C. and re-suspended in ice cold enriched DCCM-1 medium. Cells were seeded in 96-well tissue culture plates.
LN cells isolated from GA-immunized animals were stimulated with GA (GMA, Mylan Pharmaceuticals, Inc.) at concentrations as indicated in Tables 16 and 17. A positive control was prepared by treating LN cells with 2.5 μg/mL concavalin A (ConA, a non-specific T cell stimulant). Myelin basic protein (MBP, 10 μg/mL) and enriched DCCM-1 medium served as negative controls. The cells from all groups each were stimulated with the same GA lot. Each reaction was set up in triplicate.
After incubation at about 37° C. in a humidified CO2 incubator for 6 hours, the cells were lysed for total RNA isolation. Total RNA was isolated from treated LN cells using SV 96 Total RNA Isolation System according to the manufacturer's protocol (Promega, Cat. #Z3500). Cells were washed once with Phosphate Buffered Saline (PBS) and lysed in RNA lysis buffer. The lysate was transferred to wells of the SV 96 binding plate. Samples were washed with RNA wash solution and treated with DNase. Total RNA was eluted with nuclease-free water from the binding plate.
After the reverse transcriptase reaction was completed, cDNA samples were used directly for real-time PCR to measure the response biomarker mRNA levels produced by the stimulated cells. […] All probes for target genes contained FAM dye, and probes for the internal control contained VIC®/MGB dye. Samples will be prepared and run in 96-well plates using a Real-Time PCR system (7500, Life Technologies). This system allows direct detection of PCR-product formation by measuring the increase in fluorescent emission continuously during the PCR reaction. A relative quantitation method was used to analyze changes in mouse IL-2, IL-4, IL-5, IL-10, IL-13, IFN-γ and TNF-α expression in GA-treated samples relative to the untreated control (enriched DCCM-1 treated) samples. The Real-Time PCR program was:
The levels of mouse cytokine amplicons (IL-2, IL-4, IL-5, IL-10, IL-13, mIFN-γ and TNF-α) were normalized to internal probe levels (GAPDH) from the same samples. The following equations were used to calculate the relative increase in response to GA stimulation compared to the control sample: ΔCT=CT_target−CT_reference ΔΔCT=−ΔCT_Treated−CT_VC

[1] = system: mIL-4 mRNA in primary LN cells; experiment: mIL-4 mRNA by real-time PCR in stimulated LN cells of immunized (SJL/J×BALB/C)F1 mice (Example I); assay type: cell-based, mouse; settings: for mIL-4 mRNA Level: Experiment 1, GA-immunized (SJL/J×BALB/C)F1; for mIL-4 mRNA: reference 18S rRNA
Method: For each of the three experiments summarized in Table 1, female (SJL/J×BALB/C) F1 hybrid (Jackson Laboratory) mice were immunized by footpad injection with either 250 μg GMA (Mylan Pharmaceuticals, Inc.) and CFA (Sigma Aldrich), or Mannitol and CFA (as a negative control). The GA solution was diluted to 5 mg/mL with Dulbecco's Phosphate-buffered saline. A dose solution was then prepared by mixing the diluted GA solution (5 mg/mL) and CFA (1:1) until well-emulsified. Each mouse received a total injection volume of 0.1 mL (250 μg GA). Animals were immunized on Day 0. Immunized animals were sacrificed via cervical dislocation on Day 10 following immunization. […] The LN were washed 3 times with −5 mL of RPMI medium, and the LN cells isolated by pressing the LN with a syringe plunger. […] The cell suspension was centrifuged at about 200×g for 10 minutes at about 4° C. and re-suspended in ice cold enriched DCCM-1 medium. The LN cells (2.5×10^6 cells/cm^2) were plated in the wells of a 48-well tissue culture plate and stimulated with GA or controls.
Expression of cytokine mRNA was quantitatively analyzed using a Real-Time PCR system (7500, Applied Biosystems).
(DCCM1 from Beit Haemek Ltd.; Cat. No. 05 010 1A). There was no MBP treatment for the 2-hour groups.
Group 1B animals were female (SJL/J×BALB/C) F1 hybrid (Jackson Laboratory) mice immunized by footpad injection with either 250 μg GA and CFA, or Mannitol and CFA (as a negative control). A dose solution was prepared by mixing a diluted GA solution (5 mg/mL) and CFA (1:1). Each mouse received a total injection volume of […] (250 μg GA). Animals were immunized on Day 0. Immunized animals were sacrificed via cervical dislocation on Day 10 following immunization. Lymph nodes from immunized mice were removed and isolated. LN cells (2.5×10^6 cells/cm^2) were plated in the wells of a 48-well tissue culture plate for stimulation with GA.
Expression of cytokine mRNA was quantitatively analyzed 4 and 6 hours after using a Real-Time PCR system (7500, Applied Biosystems).

[2] = 2 hour post stimulation, GA 10, ConA 2.5 μg/mL
[3] = 4 hour post stimulation, GA 10, MBP 10, ConA 2.5 μg/mL
[4] = 6 hour post stimulation, GA 10, MBP 10, ConA 2.5 μg/mL
[5] = 24 hour post stimulation, GA 10, MBP 10, ConA 2.5 μg/mL
[6] = Group 1B (GA + CFA), 4 hours post-stimulation, GA 10, MBP 10, ConA 2.5 μg/mL
[7] = Group 1B (GA + CFA), 6 hours post-stimulation, GA 10, MBP 10, ConA 2.5 μg/mL
[8] = Group 2B (Mannitol + CFA), 4 hours post-stimulation, GA 10, MBP 10, ConA 2.5 μg/mL
[9] = Group 2B (Mannitol + CFA), 6 hours post-stimulation, GA 10, MBP 10, ConA 2.5 μg/mL
[10] = Group 1C: CD-1, GA-immunized, stimulation 10 μg/mL
[11] = Group 2C: BALB/cByJ, GA-immunized, stimulation 10 μg/mL
[12] = Group 3C: SJL/J, GA-immunized, stimulation 10 μg/mL

| Molecule | mIL-4 mRNA Level [1, 2] [fold change vs control] | mIL-4 mRNA Level [1, 3] [fold change vs control] | mIL-4 mRNA Level [1, 4] [fold change vs control] | mIL-4 mRNA Level [1, 5] [fold change vs control] | mIL-4 mRNA [1, 6] [fold change vs control] | mIL-4 mRNA [1, 7] [fold change vs control] | mIL-4 mRNA [1, 8] [fold change vs control] | mIL-4 mRNA [1, 9] [fold change vs control] | IL-13 mRNA Expression (IL-13 mRNA in LN cells; [10]) [fold change vs control] | IL-13 mRNA Expression (IL-13 mRNA in LN cells; [11]) [fold change vs control] | IL-13 mRNA Expression (IL-13 mRNA in LN cells; [12]) [fold change vs control] | also measured |
| --- | --- | --- | --- | --- | --- | --- | --- | --- | --- | --- | --- | --- |
| Concanavalin A [ConA, reference compound] | 35.7 | 47.6 | 52.2 | 6.1 | 27.1 | 12.8 | 37.3 | 56.2 |  |  |  | IL-13 mRNA Expression (IL-13 mRNA in LN cells; Group 1C: CD-1, GA-immunized, stimulation 2.5 μg/mL): 31.3 fold change vs control; IL-13 mRNA Expression (IL-13 mRNA in LN cells; Group 2C: BALB/cByJ, GA-immunized, stimulation 2.5 μg/mL): 32.0 fold change vs control; IL-13 mRNA Expression (IL-13 mRNA in LN cells; Group 3C: SJL/J, GA-immunized, stimulation 2.5 μg/mL): 24.4 fold change vs control |
| L-glutamic acid polymer with L-alanine, L-lysine and L-tyrosine, acetate (salt) [GA] | 10.0 | 10.0 | 16.5 | 14.1 | 8.2 | 9.2 | 2.2 | 1.1 | 12.3 | 12.6 | 20.0 | IL-13 mRNA Expression (IL-13 mRNA in LN cells; Group 1C: CD-1, GA-immunized, stimulation 0.3 μg/mL): 1.7 fold change vs control; IL-13 mRNA Expression (IL-13 mRNA in LN cells; Group 1C: CD-1, GA-immunized, stimulation 1 μg/mL): 3.3 fold change vs control; IL-13 mRNA Expression (IL-13 mRNA in LN cells; Group 1C: CD-1, GA-immunized, stimulation 3 μg/mL): 9.4 fold change vs control; IL-13 mRNA Expression (IL-13 mRNA in LN cells; Group 2C: BALB/cByJ, GA-immunized, stimulation 0.3 μg/mL): 3.2 fold change vs control; IL-13 mRNA Expression (IL-13 mRNA in LN cells; Group 2C: BALB/cByJ, GA-immunized, stimulation 1 μg/mL): 9.1 fold change vs control; IL-13 mRNA Expression (IL-13 mRNA in LN cells; Group 2C: BALB/cByJ, GA-immunized, stimulation 3 μg/mL): 12.4 fold change vs control; IL-13 mRNA Expression (IL-13 mRNA in LN cells; Group 3C: SJL/J, GA-immunized, stimulation 0.3 μg/mL): 1.7 fold change vs control; IL-13 mRNA Expression (IL-13 mRNA in LN cells; Group 3C: SJL/J, GA-immunized, stimulation 1 μg/mL): 7.3 fold change vs control; IL-13 mRNA Expression (IL-13 mRNA in LN cells; Group 3C: SJL/J, GA-immunized, stimulation 3 μg/mL): 12.9 fold change vs control; mIL-4 mRNA level increase vs DCCM-1-stimulated control ([1]; Group 1B, 4 and 6 hours (summary of Table 9)): at least 8 fold |
| MBP: myelin basic protein, a negative control (protein, UniProt P02686 1-304, looked up) Myelin basic protein: MGNHAGKRELNAEKASTNSETNRGESEKKRNLGELSRTTSEDNEVFGEADANQNNGTSSQDTAVTDSKRTADPKNAWQDAHPADPGSRPHLIRLFSRDAPGREDNTFKDRPSESDELQTIQEDSAATSESLDVMASQKRPSQRHGSKYLATASTMDHARHGFLPRHRDTGILDSIGRFFGGDRGAPKRGSGKDSHHPARTAHYGSLPQKSHGRTQDENPVVHFFKNIVTPRTPPPSQGKGRGLSLSRFSWGAEGQRPGFGYGGRASDYKSAHKGFKGVDAQGTLSKIFKLGGRDSRSGSPMARR |  | 0.8 | 0.6 | 1.1 | 0.5 | 0.3 | 1.4 | 0.8 | 1.5 | 0.8 | 0.6 |  |
